One experiment concerns the target USP1-UAF1 (Homo sapiens, UniProt O94782). Put plainly: Ubiquitin Rhodamine assay of USP1-UAF1 activity. The format is biochemical. On the procedure:
Certain compounds of the disclosure were assessed for USP1-UAF1 activity in a Ubiquitin Rhodamine assay as described in Biology Example 1.

Another experiment relates to MDA-MB-436. Nature of the experiment: Viability assay, BRCA1 mutant cell line MDA-MB-436. The format is cell-based. The conditions noted are these: Homo sapiens, MDA-MB-436, viability, BRCA1 mutant MDA-MB-436; read-out: MDA-MB-436 rel IC50. From the text:
(§1) Table 1 also indicates IC50 values in a viability assay for a non-isogenic pair of BRCA1 mutant (column 5-MDA-MB-436) and BRCA1 WT (column 6—HCC1954) cell lines. These values indicate the effect of treatment with compound on cell survival.

A further experiment concerns HCC1954. Nature of the experiment: Viability assay, BRCA1 WT cell line HCC1954. It is filed as cell-based. The note with it: Homo sapiens, HCC1954, viability, read-out: HCC1954 rel IC50.
Description: as §1

Another experiment concerns monoubiquitinated PCNA. Nature of the experiment: AlphaLISA assay measuring monoubiquitinated PCNA in MDA-MB-436. It is filed as cell-based. The note with it: Homo sapiens, MDA-MB-436, monoubiquitinated PCNA, read-out: Alpha Lisa IC50. From the text: Table 1 also indicates IC50 values for exemplary compounds in an AlphaLISA assay measuring monoubiquitinated PCNA in a BRCA1 mutant cell line (MDA-MB-436; column 7).
(Bead proximity is the source of the signal in Alpha formats.)

Sequence of USP1-UAF1 (O94782 whole entry): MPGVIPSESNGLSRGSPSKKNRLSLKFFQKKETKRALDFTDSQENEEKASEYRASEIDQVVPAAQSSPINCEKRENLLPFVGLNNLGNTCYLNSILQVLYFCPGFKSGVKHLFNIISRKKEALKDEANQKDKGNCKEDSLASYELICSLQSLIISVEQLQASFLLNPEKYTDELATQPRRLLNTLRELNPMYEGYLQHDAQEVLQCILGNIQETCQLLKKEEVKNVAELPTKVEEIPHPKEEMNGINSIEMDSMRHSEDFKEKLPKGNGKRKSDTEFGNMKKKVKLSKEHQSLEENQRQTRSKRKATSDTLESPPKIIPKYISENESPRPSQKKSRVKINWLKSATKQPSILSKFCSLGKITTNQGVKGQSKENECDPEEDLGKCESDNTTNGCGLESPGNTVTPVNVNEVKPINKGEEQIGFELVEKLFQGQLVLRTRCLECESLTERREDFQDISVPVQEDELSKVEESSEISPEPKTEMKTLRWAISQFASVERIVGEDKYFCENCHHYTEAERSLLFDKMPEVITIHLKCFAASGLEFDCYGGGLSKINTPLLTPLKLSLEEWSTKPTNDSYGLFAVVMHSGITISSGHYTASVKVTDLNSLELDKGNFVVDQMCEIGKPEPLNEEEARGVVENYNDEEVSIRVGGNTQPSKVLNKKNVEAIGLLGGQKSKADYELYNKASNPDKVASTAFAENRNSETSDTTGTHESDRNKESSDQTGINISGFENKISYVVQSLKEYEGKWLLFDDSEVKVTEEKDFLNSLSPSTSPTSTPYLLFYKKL
Sequence of USP1-UAF1 (Q8TAF3 whole entry partner): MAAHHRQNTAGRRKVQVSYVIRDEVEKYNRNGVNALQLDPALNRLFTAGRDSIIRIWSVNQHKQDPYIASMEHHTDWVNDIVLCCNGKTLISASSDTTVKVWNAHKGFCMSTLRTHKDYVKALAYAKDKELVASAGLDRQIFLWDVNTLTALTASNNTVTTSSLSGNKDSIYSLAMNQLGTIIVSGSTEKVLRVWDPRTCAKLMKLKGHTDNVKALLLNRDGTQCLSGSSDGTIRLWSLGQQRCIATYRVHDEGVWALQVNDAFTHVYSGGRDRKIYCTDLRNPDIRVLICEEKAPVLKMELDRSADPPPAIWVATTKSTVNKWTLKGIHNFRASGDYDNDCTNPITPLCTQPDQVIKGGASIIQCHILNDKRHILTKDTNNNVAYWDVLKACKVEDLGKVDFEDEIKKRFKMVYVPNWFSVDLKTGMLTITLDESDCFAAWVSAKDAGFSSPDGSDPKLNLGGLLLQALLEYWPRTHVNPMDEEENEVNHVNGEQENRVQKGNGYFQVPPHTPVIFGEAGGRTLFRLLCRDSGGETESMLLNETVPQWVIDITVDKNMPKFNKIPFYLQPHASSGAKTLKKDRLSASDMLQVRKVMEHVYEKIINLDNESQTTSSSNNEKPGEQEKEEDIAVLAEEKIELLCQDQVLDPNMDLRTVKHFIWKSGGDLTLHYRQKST

Consider `C=C(C)c1ccccc1-c1ncc2c(n1)n(Cc1ccc(-c3nc(Cl)cn3C)cc1)c(=N)n2C` [Example A-12, 9-(4-(4-chloro-1-methyl-1H-imidazol-2-yl)benzyl)-7-methyl-2-(2-(prop-1-en-2-yl)phenyl)-7,9-dihydro-8H-purin-8-imine], for which the IC50 (usually the concentration that inhibits the measured activity by half) against USP1-UAF1 was below 30 nM; in the experiment on MDA-MB-436, below 100 nM; with HCC1954, at least 10000 nM; with monoubiquitinated PCNA, below 100 nM.

Take `CC(C)c1ccccc1-c1nc(C#N)c2c(n1)n(Cc1ccc(-c3nc(C(F)(F)F)cn3C)cc1)c(=N)n2C` [Example A-13, 8-imino-2-(2-isopropylphenyl)-7-methyl-9-(4-(1-methyl-4-(trifluoromethyl)-1H-imidazol-2-yl)benzyl)-8,9-dihydro-7H-purine-6-carbonitrile]: the IC50 against USP1-UAF1 lay within 100 to 10000 nM; in the experiment with MDA-MB-436, 250 to 10000 nM; in the experiment on HCC1954, 250 to 10000 nM; in the experiment with monoubiquitinated PCNA, 250 to 10000 nM.

For the compound `CCn1c(=N)n(Cc2ccc(-c3nc(C(F)(F)F)cn3C)cc2)c2nc(-c3ccccc3C(C)C)ncc21` [Example A-14, 7-ethyl-2-(2-isopropylphenyl)-9-(4-(1-methyl-4-(trifluoromethyl)-1H-imidazol-2-yl)benzyl)-7,9-dihydro-8H-purin-8-imine], the IC50 is below 30 nM against USP1-UAF1, below 100 nM with MDA-MB-436, 250 to 10000 nM in the experiment on HCC1954 and below 100 nM with monoubiquitinated PCNA.

For `C=C(C)c1ccccc1-c1nc(C)c2c(n1)n(Cc1ccc(-c3nc(C(F)(F)F)cn3C)cc1)c(=N)n2C` [Example A-16, 6,7-dimethyl-9-(4-(1-methyl-4-(trifluoromethyl)-1H-imidazol-2-yl)benzyl)-2-(2-(prop-1-en-2-yl)phenyl)-7,9-dihydro-8H-purin-8-imine], the IC50 on USP1-UAF1 was below 30 nM; with MDA-MB-436, below 100 nM; with HCC1954, 250 to 10000 nM; with monoubiquitinated PCNA, below 100 nM.

`CC(C)c1ccccc1-c1nc(N(C)C)c2c(n1)n(Cc1ccc(-c3nc(C(F)(F)F)cn3C)cc1)c(=N)n2C` [Example A-17, 8-imino-2-(2-isopropylphenyl)-N,N,7-trimethyl-9-(4-(1-methyl-4-(trifluoromethyl)-1H-imidazol-2-yl)benzyl)-8,9-dihydro-7H-purin-6-amine]: the half-maximal inhibitory concentration (IC50) was in the range of 100 to 10000 nM on USP1-UAF1, 250 to 10000 nM in the experiment on MDA-MB-436, 250 to 10000 nM in the experiment on HCC1954 and 250 to 10000 nM with monoubiquitinated PCNA.

For `CNc1nc(-c2ccccc2C(C)C)nc2c1n(C)c(=N)n2Cc1ccc(-c2nc(C(F)(F)F)cn2C)cc1` [Example A-18, 8-imino-2-(2-isopropylphenyl)-N, 7-dimethyl-9-(4-(1-methyl-4-(trifluoromethyl)-1H-imidazol-2-yl)benzyl)-8,9-dihydro-7H-purin-6-amine], the IC50 was 100 to 10000 nM against USP1-UAF1, 250 to 10000 nM in the experiment with MDA-MB-436, 250 to 10000 nM with HCC1954 and at least 10000 nM in the experiment on monoubiquitinated PCNA.

Take `Cc1cc(Cl)nn1-c1ccc(Cn2c(=N)n(C)c3cnc(-c4ccccc4C(C)C)nc32)cc1` [Example A-21, 9-(4-(3-chloro-5-methyl-1H-pyrazol-1-yl)benzyl)-2-(2-isopropylphenyl)-7-methyl-7,9-dihydro-8H-purin-8-imine]: the IC50 against USP1-UAF1 was below 30 nM; in the experiment with MDA-MB-436, below 100 nM; in the experiment on HCC1954, 250 to 10000 nM; with monoubiquitinated PCNA, below 100 nM.

With `CC(C)c1ccccc1-c1nc(C2CC2)c2c(n1)n(Cc1ccc(-c3nc(C(F)(F)F)cn3C)cc1)c(=N)n2C` [Example A-23, 6-cyclopropyl-2-(2-isopropylphenyl)-7-methyl-9-(4-(1-methyl-4-(trifluoromethyl)-1H-imidazol-2-yl)benzyl)-7,9-dihydro-8H-purin-8-imine], the IC50 was below 30 nM against USP1-UAF1, 250 to 10000 nM with MDA-MB-436, 250 to 10000 nM in the experiment on HCC1954 and 250 to 10000 nM with monoubiquitinated PCNA.

`CC(C)c1ccccc1-c1ncc2c(n1)n(Cc1ccc(-n3ccc(C(F)(F)F)n3)cc1)c(=N)n2C` [Example A-24, 2-(2-isopropylphenyl)-7-methyl-9-(4-(3-(trifluoromethyl)-1H-pyrazol-1-yl)benzyl)-7,9-dihydro-8H-purin-8-imine]: the IC50 at USP1-UAF1 is 30 to 100 nM; in the experiment with MDA-MB-436 it was 250 to 10000 nM; in the experiment on HCC1954, 250 to 10000 nM; in the experiment on monoubiquitinated PCNA, 250 to 10000 nM.

Turning to `CC(C)c1ccccc1-c1ncc2c(n1)n(Cc1ccc(-c3nc(C(F)(F)F)cs3)cc1)c(=N)n2C` [Example A-25, 2-(2-isopropylphenyl)-7-methyl-9-(4-(4-(trifluoromethyl)thiazol-2-yl)benzyl)-7,9-dihydro-8H-purin-8-imine], the IC50 against USP1-UAF1 was 30 to 100 nM; in the experiment with MDA-MB-436, 250 to 10000 nM; with HCC1954, 250 to 10000 nM; in the experiment with monoubiquitinated PCNA it was 250 to 10000 nM.

In the case of `Cc1nc(-c2cc(F)ccc2C(C)C)nc2c1n(C)c(=N)n2Cc1ccc(-c2nc(Cl)cn2C)cc1` [Example A-27, 9-(4-(4-chloro-1-methyl-1H-imidazol-2-yl)benzyl)-2-(5-fluoro-2-isopropylphenyl)-6,7-dimethyl-7,9-dihydro-8H-purin-8-imine], the half-inhibitory concentration (IC50) at USP1-UAF1 was below 30 nM; in the experiment on MDA-MB-436 it was 250 to 10000 nM; with HCC1954, 250 to 10000 nM; in the experiment on monoubiquitinated PCNA, 100 to 250 nM.

`Cc1nc(-c2cccc(F)c2C(C)C)nc2c1n(C)c(=N)n2Cc1ccc(-c2nc(Cl)cn2C)cc1` [Example A-28, 9-(4-(4-chloro-1-methyl-1H-imidazol-2-yl)benzyl)-2-(3-fluoro-2-isopropylphenyl)-6,7-dimethyl-7,9-dihydro-8H-purin-8-imine]: the IC50 at USP1-UAF1 is below 30 nM; in the experiment on MDA-MB-436, below 100 nM; in the experiment on HCC1954, at least 10000 nM; with monoubiquitinated PCNA it was below 100 nM.

Turning to `CC(C)c1ccccc1-c1ncc2c(n1)n(Cc1ccc(-c3nc(C(F)(F)F)cn3C)cc1F)c(=N)n2C` [Example A-29, 9-(2-fluoro-4-(1-methyl-4-(trifluoromethyl)-1H-imidazol-2-yl)benzyl)-2-(2-isopropylphenyl)-7-methyl-7,9-dihydro-8H-purin-8-imine], the IC50 against USP1-UAF1 was below 30 nM; in the experiment on MDA-MB-436, below 100 nM; with HCC1954, at least 10000 nM; in the experiment on monoubiquitinated PCNA, below 100 nM.

Turning to `C=C(C)c1c(F)cccc1-c1nc(C)c2c(n1)n(Cc1ccc(-c3nc(Cl)cn3C)cc1)c(=N)n2C` [Example A-30, 9-(4-(4-chloro-1-methyl-1H-imidazol-2-yl)benzyl)-2-(3-fluoro-2-(prop-1-en-2-yl)phenyl)-6,7-dimethyl-7,9-dihydro-8H-purin-8-imine], the IC50 on USP1-UAF1 was below 30 nM; with MDA-MB-436, below 100 nM; with HCC1954 it was 250 to 10000 nM; in the experiment on monoubiquitinated PCNA it was below 100 nM.

On to `C=C(C)c1c(F)cccc1-c1nc(C)c2c(n1)n(Cc1ccc(-c3nc(C(F)(F)F)cn3C)cc1)c(=N)n2C` [Example A-31, 2-(3-fluoro-2-(prop-1-en-2-yl)phenyl)-6,7-dimethyl-9-(4-(1-methyl-4-(trifluoromethyl)-1H-imidazol-2-yl)benzyl)-7,9-dihydro-8H-purin-8-imine], for which the IC50 is below 30 nM against USP1-UAF1, below 100 nM in the experiment on MDA-MB-436, 250 to 10000 nM in the experiment with HCC1954 and below 100 nM in the experiment with monoubiquitinated PCNA.

Turning to `CC(C)c1ccccc1-c1ncc2c(n1)n(Cc1ccc(-c3nc(C(F)(F)F)cn3C)cc1)c(=N)n2C1CCC1` [Example A-34, 7-cyclobutyl-2-(2-isopropylphenyl)-9-(4-(1-methyl-4-(trifluoromethyl)-1H-imidazol-2-yl)benzyl)-7,9-dihydro-8H-purin-8-imine], the IC50 at USP1-UAF1 was below 30 nM; with MDA-MB-436, 100 to 250 nM; in the experiment on HCC1954 it was 250 to 10000 nM; in the experiment on monoubiquitinated PCNA, below 100 nM.

With `CC(C)c1ccccc1-c1nc(-c2ccccn2)c2c(n1)n(Cc1ccc(-c3nc(C(F)(F)F)cn3C)cc1)c(=N)n2C` [Example A-35, 2-(2-isopropylphenyl)-7-methyl-9-(4-(1-methyl-4-(trifluoromethyl)-1H-imidazol-2-yl)benzyl)-6-(pyridin-2-yl)-7,9-dihydro-8H-purin-8-imine], the IC50 was 30 to 100 nM on USP1-UAF1, 250 to 10000 nM in the experiment on MDA-MB-436, 250 to 10000 nM in the experiment on HCC1954 and 100 to 250 nM in the experiment on monoubiquitinated PCNA.

Take `Cc1nc(-c2ccccc2Cl)nc2c1n(C)c(=N)n2Cc1ccc(-c2nc(Cl)cn2C)cc1` [Example A-36, 9-(4-(4-chloro-1-methyl-1H-imidazol-2-yl)benzyl)-2-(2-chlorophenyl)-6,7-dimethyl-7,9-dihydro-8H-purin-8-imine]: the IC50 at USP1-UAF1 was 100 to 10000 nM; in the experiment on MDA-MB-436 it was 250 to 10000 nM; in the experiment on HCC1954, at least 10000 nM; in the experiment with monoubiquitinated PCNA it was 250 to 10000 nM.

For `COc1cc(Cn2c(=N)n(C)c3cnc(-c4ccccc4C(C)C)nc32)ccc1-c1nc(C(F)(F)F)cn1C` [Example A-37, 2-(2-isopropylphenyl)-9-(3-methoxy-4-(1-methyl-4-(trifluoromethyl)-1H-imidazol-2-yl)benzyl)-7-methyl-7,9-dihydro-8H-purin-8-imine], the IC50 against USP1-UAF1 is below 30 nM; in the experiment on MDA-MB-436, 250 to 10000 nM; in the experiment with HCC1954 it was at least 10000 nM; in the experiment on monoubiquitinated PCNA, 100 to 250 nM.

Take `Cc1nc(-c2ccccc2C(C)C)nc2c1n(C)c(=N)n2Cc1ccc(-c2nc(Cl)cn2C)cc1` [Example A-38, 9-(4-(4-chloro-1-methyl-1H-imidazol-2-yl)benzyl)-2-(2-isopropylphenyl)-6,7-dimethyl-7,9-dihydro-8H-purin-8-imine]: the IC50 against USP1-UAF1 was below 30 nM; in the experiment on MDA-MB-436 it was below 100 nM; in the experiment on HCC1954, 250 to 10000 nM; in the experiment with monoubiquitinated PCNA, below 100 nM.

The values are drawn from patent US20240059689A1, “PURINE DERIVATIVES AS ANTICANCER AGENTS” (Tango Therapeutics, Inc., priority 2021, published 2024).
